In article PMC12527922, “Cocaine chemogenetics blunts drug-seeking by synthetic physiology” (Nature, 2025):
“And” between values parts separate entries of the source, which are not always exact repeats. Equal entries are not always repeated. Where two headings read alike, the source gives them in different places.

Legend:
[1] = target: T1, coca-GlyR (α7(L141G,G175K,Y217F)–GlyR) (Homo sapiens, UniProt P23415+P36544, G175K/L141G/Y217F); assay: Membrane potential assay, coca-GlyR in HEK293; assay type: cell-based; conditions: coca-GlyR; for Max normalized AVG: AVG of DRs
T1 construct: expressed in transfected cells; host or cells: HEK293 (ATCC CRL-1573), pcDNA3.1

[2] = target: T2, unmodified α7–5HT3 (UniProt P23979+P36544, M226I/T225I); assay: Membrane potential assay, unmodified α7–5HT3; assay type: cell-based, human α7 nAChR LBD, mouse 5HT3 IPD; conditions: a7-5Ht3; for Max normalized AVG: AVG of DR 1-3; for Max normalized, single replicate: relative to ACh max of the DR
T2 construct: expressed in transfected cells; host or cells: HEK293 (ATCC CRL-1573), pcDNA3.1

[3] = target: T3, unmodified α7–GlyR (Homo sapiens, UniProt P23415+P36544); assay: Membrane potential assay, unmodified α7–GlyR; assay type: cell-based; conditions: a7-GlyR; for Max normalized AVG: AVG of DR 1-3
T3 construct: expressed in transfected cells; host or cells: HEK293 (ATCC CRL-1573), pcDNA3.1

[4] = test system: α7–5HT3 mutant chimeric channels; assay: cell-based; assay type: cell-based, human α7 nAChR LBD, mouse 5HT3 IPD; conditions: for EC50: sheet 1e
[5] = test system: coca-5HT3; assay: Whole-cell voltage-clamp in HEK293 cells, coca-5HT3; assay type: cell-based, human α7 nAChR LBD, mouse 5HT3 IPD
Protocol: Channel mutants and agonists were further characterized in whole-cell voltage-clamp experiments performed on HEK293 cells. At passage 44–48, cells were plated at low density (1 × 10^3 per cm^2) on poly-D-lysine-coated glass coverslips, then transfected in 10 cm^2 wells using the Fugene 6 transfection reagent (Roche) with DNA plasmids containing both an ion channel cDNA (pcDNA3.1, 2 µg per well) and cDNA for GFP (pCMV, 0.1 μg per well), followed by replacement of the medium after 3 h. Recordings were made 24–72 h after transfection.
Electrophysiological recordings were performed in whole-cell voltage-clamp mode, on an inverted fluorescence microscope (Olympus IX-51) using pClamp software and a […] amplifier (Molecular Devices). Electrophysiological data was filtered at 4 kHz, digitized at 10 kHz using a Digidata 1400 interface (Molecular Devices), recorded on a PC (Dell) and analysed using custom MATLAB software (MathWorks). Solutions were delivered from a gravity fed perfusion system through a capillary tube placed approximately […] from the recorded cell using an eight-way manifold pinch valve system (Nanion), which was controlled from the acquisition software. This allowed for up to seven concentrations of agonist to be tested. […]

[6] = screen of chimeric α7–5HT3 and α7–GlyR single LBD mutants (Fig. 1d)

T2 sequence (P36544+P23979 fused P36544:T225I/P36544:M226I): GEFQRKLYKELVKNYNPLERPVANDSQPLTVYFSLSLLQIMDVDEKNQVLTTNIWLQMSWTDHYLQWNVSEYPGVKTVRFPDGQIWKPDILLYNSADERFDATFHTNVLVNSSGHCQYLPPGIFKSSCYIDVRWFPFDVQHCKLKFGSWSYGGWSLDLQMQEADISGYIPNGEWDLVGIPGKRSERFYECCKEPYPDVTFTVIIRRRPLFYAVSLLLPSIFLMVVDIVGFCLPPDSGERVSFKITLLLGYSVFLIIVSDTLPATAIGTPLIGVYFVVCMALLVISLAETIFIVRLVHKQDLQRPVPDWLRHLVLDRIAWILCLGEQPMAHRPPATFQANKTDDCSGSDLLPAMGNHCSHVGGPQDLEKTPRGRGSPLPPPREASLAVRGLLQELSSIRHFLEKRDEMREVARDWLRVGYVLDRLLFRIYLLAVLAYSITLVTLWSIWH
T3 sequence (P36544+P23415 fused): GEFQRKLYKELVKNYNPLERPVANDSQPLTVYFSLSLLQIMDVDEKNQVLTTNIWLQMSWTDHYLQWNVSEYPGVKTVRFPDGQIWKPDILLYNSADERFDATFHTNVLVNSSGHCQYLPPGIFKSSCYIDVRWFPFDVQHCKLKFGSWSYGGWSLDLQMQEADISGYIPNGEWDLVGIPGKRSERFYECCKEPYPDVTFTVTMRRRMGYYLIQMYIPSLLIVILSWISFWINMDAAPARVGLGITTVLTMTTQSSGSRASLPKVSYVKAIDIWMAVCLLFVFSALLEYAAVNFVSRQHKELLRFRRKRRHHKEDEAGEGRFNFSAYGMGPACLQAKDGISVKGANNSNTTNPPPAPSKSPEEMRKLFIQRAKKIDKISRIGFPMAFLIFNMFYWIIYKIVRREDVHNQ
T1 sequence (P36544+P23415 fused P36544:L141G/P36544:G175K/P36544:Y217F): as the sequence (P36544+P23415 fused) above, with L119G, G153K, Y195F counted along it

## CC(=O)OCC[N+](C)(C)C [ACh, acetylcholine]
[1]; [ACh] 1.37174
  DR response, single replicate: […]
  Max normalized, single replicate: […]
  Max normalized AVG: […]
[1]; [ACh] 4.11523
  DR response, single replicate: […]
  Max normalized, single replicate: […]
  Max normalized AVG: […]
[1]; [ACh] 12.3457
  DR response, single replicate: […]
  Max normalized, single replicate: […]
  Max normalized AVG: […]
[1]; [ACh] 37.037
  DR response, single replicate: […]
  Max normalized, single replicate: […]
  Max normalized AVG: […]
[1]; [ACh] 111.111
  DR response, single replicate: […]
  Max normalized, single replicate: […]
  Max normalized AVG: […]
[1]; [ACh] 333.333
  DR response, single replicate: […]
  Max normalized, single replicate: […]
  Max normalized AVG: […]
[1]; [ACh] 1000
  DR response, single replicate: […]
  Max normalized, single replicate: […]
  Max normalized AVG: […]
[1]; [ACh] 3000
  Max normalized AVG: 0.7379
[1]; largest response of each DR
  max (DR response of the replicate): […]
[2]; concentration 0.0457247
  Max normalized AVG: 0.09523
[2]; concentration 0.137174
  Max normalized AVG: 0.04305
[2]; concentration 0.411523
  DR response, single replicate: […]
  Max normalized AVG: […]
  Max normalized, single replicate: […]
[2]; concentration 1.23457
  DR response, single replicate: […]
  Max normalized AVG: […]
  Max normalized, single replicate: […]
[2]; concentration 3.7037
  DR response, single replicate: […]
  Max normalized AVG: […]
  Max normalized, single replicate: […]
[2]; concentration 11.1111
  DR response, single replicate: […]
  Max normalized AVG: […]
  Max normalized, single replicate: […]
[2]; concentration 33.3333
  DR response, single replicate: […]
  Max normalized AVG: […]
  Max normalized, single replicate: […]
[2]; concentration 100
  Max normalized AVG: 0.8947
[2]; largest response of each DR
  max (DR response of the replicate): […]
[3]; [ACh] 0.0457247
  Max normalized, single replicate: […]
  Max normalized AVG: […]
[3]; [ACh] 0.137174
  Max normalized AVG: 0.1486
[3]; [ACh] 0.411523
  Max normalized, single replicate: […]
  Max normalized AVG: […]
[3]; [ACh] 1.23457
  Max normalized, single replicate: […]
  Max normalized AVG: […]
[3]; [ACh] 3.7037
  Max normalized, single replicate: 0.4426 and 0.3029 and 0.2921
  Max normalized AVG: 0.3459
[3]; [ACh] 11.1111
  Max normalized, single replicate: […]
  Max normalized AVG: […]
[3]; [ACh] 33.3333
  Max normalized, single replicate: […]
  Max normalized AVG: […]
[3]; [ACh] 100
  Max normalized, single replicate: […]
  Max normalized AVG: […]
[3]; concentration 0.0457247
  DR response, single replicate: […]
[3]; concentration 0.137174
  DR response, single replicate: […]
[3]; concentration 0.411523
  DR response, single replicate: […]
[3]; concentration 1.23457
  DR response, single replicate: […]
[3]; concentration 3.7037
  DR response, single replicate: […]
[3]; concentration 11.1111
  DR response, single replicate: […]
[3]; concentration 33.3333
  DR response, single replicate: […]
[3]; concentration 100
  DR response, single replicate: 0.445 and 0.427 and 0.383
[3]; largest response of each DR
  max (DR response of the replicate): 0.445 and 0.427 and 0.383
[4]; read-out: EC50 at a75HT3 L141G G175K Y115F, AVG, AVG
  EC50: […]
[4]; read-out: EC50 at a75HT3 L141G G175K Y115F, single determinations
  EC50: […]
[4]; read-out: EC50 at a75HT3 L141G G175K Y210F, AVG, AVG
  EC50: […]
[4]; read-out: EC50 at a75HT3 L141G G175K Y217F, AVG, AVG
  EC50: […]
[4]; read-out: EC50 at a75HT3 L141G G175K, AVG, AVG
  EC50: […]
[4]; read-out: EC50 at a75HT3 L141G G175K, single determinations
  EC50: […]
[4]; [6]
  agonism at Leu141Gly or Leu141Ala mutant channels: […]
  agonist activity at Trp77Phe and Leu131Asn mutant channels: […]
[5]
  currents from coca-5HT3: shifted above physiological concentrations
